This note sets out measurements from patent US11279687B2, “Compounds and compositions for the inhibition of NAMPT” (Valo Health, Inc., priority 2010, dated 2022).

The target of one experiment is NAMPT (Homo sapiens (Human), UniProt P43490). The experiment can be described thus: NAMPT biochemical inhibition assay (NMN quantified by mass spectrometry). The note with it: NAMPT biochemical inhibition; read-out: Biochem IC50.
The subject of another experiment is A2780 cells. The experiment is described as follows: In-vitro cell proliferation assay (SRB), A2780 cells.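 Also: viable cell number read as SRB absorbance, background from media-only wells subtracted, IC50 interpolated from percent inhibition at two bracketing compound concentrations.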 The class given is cell-based. The following applies: A2780 cells, 72 hours, SRB, read-out: A2780 IC50.

Where two headings read alike, the source gives them in different places.

Chain of NAMPT (P43490 whole entry): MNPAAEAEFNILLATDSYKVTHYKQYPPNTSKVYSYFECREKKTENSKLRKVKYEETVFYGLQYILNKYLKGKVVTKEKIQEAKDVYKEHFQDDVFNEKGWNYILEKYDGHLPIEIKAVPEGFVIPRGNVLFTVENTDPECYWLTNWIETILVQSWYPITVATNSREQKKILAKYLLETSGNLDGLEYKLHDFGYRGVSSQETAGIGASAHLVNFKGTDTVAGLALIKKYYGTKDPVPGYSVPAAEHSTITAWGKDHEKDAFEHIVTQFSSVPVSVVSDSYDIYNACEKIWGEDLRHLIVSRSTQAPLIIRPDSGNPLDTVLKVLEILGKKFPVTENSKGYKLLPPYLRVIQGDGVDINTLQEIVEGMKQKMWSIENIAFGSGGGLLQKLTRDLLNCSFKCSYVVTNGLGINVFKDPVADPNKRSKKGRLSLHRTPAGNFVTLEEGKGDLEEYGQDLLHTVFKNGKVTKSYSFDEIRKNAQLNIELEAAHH

Regarding `Cc1cc(C)n(-c2cccc(S(=O)(=O)c3ccc(NC(=O)NCc4cccnc4)cc3)c2)n1` [3-(4-{[3-(3,5-dimethyl-1H-pyrazol-1-yl)benzene]sulfonyl}phenyl)-1-(pyridin-3-ylmethyl)urea], the IC50 came out at 1.6 nM on NAMPT and 15.9 nM with A2780 cells (Homo sapiens, A2780, 72 h).

On to `Cc1nnc(-c2cccc(S(=O)(=O)c3ccc(NC(=O)NCc4cccnc4)cc3)c2)o1` [3-(4-{[3-(5-methyl-1,3,4-oxadiazol-2-yl)benzene]sulfonyl]phenyl)-1-(pyridin-3-ylmethyl)urea], for which the half-maximal inhibitory concentration (IC50) on NAMPT was 7.3 nM; with A2780 cells it was 100 to 1000 nM.

With `CN(C)S(=O)(=O)c1cccc(S(=O)(=O)c2ccc(NC(=O)NCc3cccnc3)cc2)c1` [3-(4-{[3-(dimethylsulfamoyl)benzene]sulfonyl]phenyl)-1-(pyridin-3-ylmethyl)urea], the IC50 at NAMPT stood at 3.3 nM; in the experiment with A2780 cells (Homo sapiens, A2780, 72 h) it was 79.3 nM.

Take `CCS(=O)(=O)c1cccc(S(=O)(=O)c2ccc(NC(=O)NCc3cccnc3)cc2)c1` [3-(4-{[3-(ethanesulfonyl)benzene]sulfonyl]phenyl)-1-(pyridin-3-ylmethyl)urea]: the IC50 on NAMPT is 7.6 nM; in the experiment with A2780 cells (Homo sapiens, A2780, 72 h), 100 to 1000 nM.

Regarding `CCNS(=O)(=O)c1cccc(S(=O)(=O)c2ccc(NC(=O)NCc3cccnc3)cc2)c1` [3-(4-{[3-(ethylsulfamoyl)benzene]sulfonyl}phenyl)-1-(pyridin-3-ylmethyl)urea], the IC50 was 7.2 nM at NAMPT and 100 to 1000 nM in the experiment on A2780 cells (Homo sapiens, A2780, 72 h).

Regarding `COCc1cccc(S(=O)(=O)c2ccc(NC(=O)NCc3cccnc3)cc2)c1` [3-(4-{[3-(methoxymethyl)benzene]sulfonyl}phenyl)-1-(pyridin-3-ylmethyl)urea], the IC50 at NAMPT is 3.3 nM; with A2780 cells (Homo sapiens, A2780, 72 h), 93.3 nM.

As to `CC(C)c1cccc(S(=O)(=O)c2ccc(NC(=O)NCc3cccnc3)cc2)c1` [3-(4-{[3-(propan-2-yl)benzene]sulfonyl}phenyl)-1-(pyridin-3-ylmethyl)urea], the IC50 at NAMPT came to 2 nM; in the experiment on A2780 cells (Homo sapiens, A2780, 72 h) it was 38 nM.

As for `CC(C)Oc1cccc(S(=O)(=O)c2ccc(NC(=O)NCc3cccnc3)cc2)c1` [3-(4-{[3-(propan-2-yloxy)benzene]sulfonyl}phenyl)-1-(pyridin-3-ylmethyl)urea], the IC50 on NAMPT was 4 nM; in the experiment on A2780 cells (Homo sapiens, A2780, 72 h), 79 nM.

For the compound `CCCS(=O)(=O)Nc1cccc(S(=O)(=O)c2ccc(NC(=O)NCc3cccnc3)cc2)c1` [3-(4-{[3-(propane-1-sulfonamido)benzene]sulfonyl}phenyl)-1-(pyridin-3-ylmethyl)urea], the 50% inhibitory concentration (IC50) on NAMPT was determined as 1.6 nM; in the experiment with A2780 cells (Homo sapiens, A2780, 72 h), 86 nM.

For the compound `O=C(NCc1cccnc1)Nc1ccc(S(=O)(=O)Nc2ccc(N3CCOCC3)c(Cl)c2)cc1` [3-(4-{[3-chloro-4-(morpholin-4-yl)phenyl]sulfamoyl}phenyl)-1-(pyridin-3-ylmethyl)urea], the IC50 on NAMPT came to 1 nM; with A2780 cells (Homo sapiens, A2780, 72 h), 24 nM.

In the case of `O=C(NCc1cccnc1)Nc1ccc(S(=O)(=O)c2ccc(C(F)(F)F)c(Cl)c2)cc1` [3-(4-{[3-chloro-4-(trifluoromethyl)benzene]sulfonyl}phenyl)-1-(pyridin-3-ylmethyl)urea], the IC50 at NAMPT is 4 nM; in the experiment on A2780 cells (Homo sapiens, A2780, 72 h) it was 100 to 1000 nM.

On to `O=C(NCc1cccnc1)Nc1ccc(S(=O)(=O)c2cc(Cl)cc(C(F)(F)F)c2)cc1` [3-(4-{[3-chloro-5-(trifluoromethyl)benzene]sulfonyl}phenyl)-1-(pyridin-3-ylmethyl)urea], for which the IC50 at NAMPT came out at 1.3 nM; in the experiment with A2780 cells (Homo sapiens, A2780, 72 h), 25.5 nM.

Take `O=C(NCc1cccnc1)Nc1ccc(S(=O)(=O)c2ccc(OCC(F)(F)F)c(F)c2)cc1` [3-(4-{[3-fluoro-4-(2,2,2-trifluoroethoxy)benzene]sulfonyl}phenyl)-1-(pyridin-3-ylmethyl)urea]: the half-inhibitory concentration (IC50) on NAMPT was 2.2 nM; in the experiment on A2780 cells (Homo sapiens, A2780, 72 h), 100 to 1000 nM.

Consider `O=C(NCc1cccnc1)Nc1ccc(S(=O)(=O)c2ccc(OC(F)(F)F)c(F)c2)cc1` [3-(4-{[3-fluoro-4-(trifluoromethoxy)benzene]sulfonyl}phenyl)-1-(pyridin-3-ylmethyl)urea], for which the IC50 at NAMPT is 5.5 nM; in the experiment with A2780 cells (Homo sapiens, A2780, 72 h), 100 to 1000 nM.

Take `O=C(NCc1cccnc1)Nc1ccc(S(=O)(=O)c2ccc(C(F)(F)F)c(F)c2)cc1` [3-(4-{[3-fluoro-4-(trifluoromethyl)benzene]sulfonyl}phenyl)-1-(pyridin-3-ylmethyl)urea]: the IC50 is 4.1 nM on NAMPT and 100 to 1000 nM in the experiment on A2780 cells (Homo sapiens, A2780, 72 h).

In the case of `O=C(NCc1cccnc1)Nc1ccc(S(=O)(=O)c2cc(F)cc(OCC(F)(F)F)c2)cc1` [3-(4-{[3-fluoro-5-(2,2,2-trifluoroethoxy)benzene]sulfonyl]phenyl)-1-(pyridin-3-ylmethyl)urea], the IC50 at NAMPT came to 1.1 nM; with A2780 cells it was 29.7 nM.

For `CC(C)COc1cc(F)cc(S(=O)(=O)c2ccc(NC(=O)NCc3cccnc3)cc2)c1` [3-(4-{[3-fluoro-5-(2-methylpropoxy)benzene]sulfonyl}phenyl)-1-(pyridin-3-ylmethyl)urea], the IC50 on NAMPT was determined as 4 nM; in the experiment with A2780 cells (Homo sapiens, A2780, 72 h), 56.4 nM.

Regarding `O=C(NCc1cccnc1)Nc1ccc(S(=O)(=O)c2cc(F)cc(C(F)(F)F)c2)cc1` [3-(4-{[3-fluoro-5-(trifluoromethyl)benzene]sulfonyl[phenyl)-1-(pyridin-3-ylmethyl)urea], the IC50 on NAMPT amounted to 0.7 nM; in the experiment on A2780 cells, 57.6 nM.

For `Cc1cc(NS(=O)(=O)c2ccc(NC(=O)NCc3cccnc3)cc2)ccc1C(C)C` [3-(4-{[3-methyl-4-(propan-2-yl)phenyl]sulfamoyl}phenyl)-1-(pyridin-3-ylmethyl)urea], the IC50 on NAMPT came out at 2 nM; with A2780 cells (Homo sapiens, A2780, 72 h) it was 108 nM.

For `CCOCc1ccc(S(=O)(=O)c2ccc(NC(=O)NCc3cccnc3)cc2)cc1` [3-(4-{[4-(ethoxymethyl)benzene]sulfonyl[phenyl)-1-(pyridin-3-ylmethyl)urea], the IC50 on NAMPT was 1 nM; in the experiment on A2780 cells (Homo sapiens, A2780, 72 h), 100 to 1000 nM.

On to `CC(C)c1ccc(S(=O)(=O)c2ccc(NC(=O)NCc3cccnc3)cc2)cc1` [3-(4-{[4-(propan-2-yl)benzene]sulfonyl[phenyl)-1-(pyridin-3-ylmethyl)urea], for which the IC50 is 3 nM at NAMPT and 100 to 1000 nM with A2780 cells (Homo sapiens, A2780, 72 h).

On to `CC(C)Oc1ccc(S(=O)(=O)c2ccc(NC(=O)NCc3cccnc3)cc2)cc1` [3-(4-{[4-(propan-2-yloxy)benzene]sulfonyl[phenyl)-1-(pyridin-3-ylmethyl)urea], for which the half-inhibitory concentration (IC50) on NAMPT was determined as 1.7 nM; in the experiment on A2780 cells (Homo sapiens, A2780, 72 h) it was 29.1 nM.

Regarding `O=C(NCc1cccnc1)Nc1ccc(S(=O)(=O)Nc2ccc(Cl)cc2OC(F)(F)F)cc1` [3-(4-{[4-chloro-2-(trifluoromethoxy)phenyl]sulfamoyl[phenyl)-1-(pyridin-3-ylmethyl)urea], the IC50 was 6 nM at NAMPT and 113 nM in the experiment with A2780 cells.

`O=C(NCc1cccnc1)Nc1ccc(S(=O)(=O)c2ccc(Cl)c(C(F)(F)F)c2)cc1` [3-(4-{[4-chloro-3-(trifluoromethyl)benzene]sulfonyl}phenyl)-1-(pyridin-3-ylmethyl)urea]: the IC50 turned out to be 5 nM on NAMPT and 167 nM in the experiment with A2780 cells (Homo sapiens, A2780, 72 h).

For `O=C(NCc1cccnc1)Nc1ccc(S(=O)(=O)c2ccc(F)c(OCC(F)(F)F)c2)cc1` [3-(4-{[4-fluoro-3-(2,2,2-trifluoroethoxy)benzene]sulfonyl[phenyl)-1-(pyridin-3-ylmethyl)urea], the IC50 at NAMPT turned out to be 2.1 nM; in the experiment with A2780 cells, 23.4 nM.

For the compound `O=C(NCc1cccnc1)Nc1ccc(S(=O)(=O)c2ccc(F)c(C(F)(F)F)c2)cc1` [3-(4-{[4-fluoro-3-(trifluoromethyl)benzene]sulfonyl[phenyl)-1-(pyridin-3-ylmethyl)urea], the IC50 at NAMPT was found to be 1.5 nM; in the experiment with A2780 cells it was 86.2 nM.

With `Cc1ccc(NS(=O)(=O)c2ccc(NC(=O)NCc3cccnc3)cc2)cc1C(F)(F)F` [3-(4-{[4-methyl-3-(trifluoromethyl)phenyl]sulfamoyl[phenyl)-1-(pyridin-3-ylmethyl)urea], the IC50 at NAMPT stood at 2 nM; in the experiment with A2780 cells it was 179 nM.

As for `O=C(NCc1cccnc1)Nc1ccc(S(=O)(=O)NCc2ccccc2Cl)cc1` [3-(4-{[(2-chlorophenyl)methyl]sulfamoyl}phenyl)-1-(pyridin-3-ylmethyl)urea], the IC50 on NAMPT stood at 3 nM; in the experiment on A2780 cells (Homo sapiens, A2780, 72 h) it was 201 nM.

In the case of `COc1ccccc1CNS(=O)(=O)c1ccc(NC(=O)NCc2cccnc2)cc1` [3-(4-{[(2-methoxyphenyl)methyl]sulfamoyl}phenyl)-1-(pyridin-3-ylmethyl)urea], the IC50 on NAMPT was determined as 8 nM; in the experiment with A2780 cells (Homo sapiens, A2780, 72 h), 97 nM.

`CN(Cc1cccc(F)c1)S(=O)(=O)c1ccc(NC(=O)NCc2cccnc2)cc1` [3-(4-{[(3-fluorophenyl)methyl](methyl)sulfamoyl}phenyl)-1-(pyridin-3-ylmethyl)urea]: the IC50 on NAMPT was determined as 2 nM; in the experiment on A2780 cells (Homo sapiens, A2780, 72 h), 156 nM.

As for `CN(Cc1ccc(Cl)cc1)S(=O)(=O)c1ccc(NC(=O)NCc2cccnc2)cc1` [3-(4-{[(4-chlorophenyl)methyl](methyl)sulfamoyl}phenyl)-1-(pyridin-3-ylmethyl)urea], the IC50 turned out to be 2 nM at NAMPT and 484 nM in the experiment on A2780 cells (Homo sapiens, A2780, 72 h).

As for `COc1ccc(CNS(=O)(=O)c2ccc(NC(=O)NCc3cccnc3)cc2)cc1` [3-(4-{[(4-methoxyphenyl)methyl]sulfamoyl}phenyl)-1-(pyridin-3-ylmethyl)urea], the IC50 at NAMPT is 16 nM; in the experiment on A2780 cells (Homo sapiens, A2780, 72 h), 507 nM.

For `CCc1ccc(CN(C)S(=O)(=O)c2ccc(NC(=O)NCc3cccnc3)cc2)nc1` [3-(4-{[(5-ethylpyridin-2-yl)methyl](methyl)sulfamoyl}phenyl)-1-(pyridin-3-ylmethyl)urea], the IC50 at NAMPT is 5 nM; in the experiment with A2780 cells (Homo sapiens, A2780, 72 h), 134 nM.

`C[C@@H](c1ccccc1)N(C)S(=O)(=O)c1ccc(NC(=O)NCc2cccnc2)cc1` [3-(4-{methyl[(1S)-1-phenylethyl]sulfamoyl}phenyl)-1-(pyridin-3-ylmethyl)urea]: the IC50 on NAMPT was found to be 1 nM; in the experiment with A2780 cells (Homo sapiens, A2780, 72 h), 8 nM.

`O=C(NCc1cccnc1)Nc1ccc(S(=O)(=O)Nc2ccccc2-n2cccc2)cc1` [3-(pyridin-3-ylmethyl)-1-(4-{[2-(1H-pyrrol-1-yl)phenyl]sulfamoyl}phenyl)urea]: the IC50 was determined as 3 nM at NAMPT and 76 nM in the experiment on A2780 cells (Homo sapiens, A2780, 72 h).

As a reminder, the IC50 is the point on the concentration scale where inhibition reaches its midpoint.
